pIC50: −log10 of the molar value.
Test system: HCT116 cells
Test: In vitro cytotoxicity measured by the cell colony formation assay
Format: cell-based
Details: HCT116 cells, 72 h incubation with drug, colonies counted after 7 days; ID50 = drug concentration producing 50% inhibition of colony formation; read-out: IN VITRO ID 50 (nm) HCT116
How it was run: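 Colony-forming survival was scored 7 days after a 72 h, 37 °C compound exposure followed by washout into fresh medium.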

`CCOC(=O)O[C@H]1C(=O)[C@@]2(C)C([C@H](OC(=O)c3ccccc3)[C@]3(O)C[C@H](OC(=O)[C@H](O)[C@@H](NC(=O)OCC(C)C)c4ccco4)C(C)=C1C3(C)C)[C@]1(OC(C)=O)CO[C@@H]1C[C@@H]2O` (stereo partly shown) [Compound 3181] and `CCOC(=O)O[C@H]1C(=O)[C@@]2(C)C([C@H](OC(=O)c3ccccc3)[C@]3(O)C[C@H](OC(=O)[C@H](O)[C@@H](NC(=O)OCC(C)C)c4cccs4)C(C)=C1C3(C)C)[C@]1(OC(C)=O)CO[C@@H]1C[C@@H]2O` (stereo partly shown) [Compound 3003] cannot be ordered by pIC50: greater than 9.00 for the first, greater than 8.00 for the second.

`CCOC(=O)O[C@H]1C(=O)[C@@]2(C)C([C@H](OC(=O)c3ccccc3)[C@]3(O)C[C@H](OC(=O)[C@H](O)[C@@H](NC(=O)c4ccco4)c4ccco4)C(C)=C1C3(C)C)[C@]1(OC(C)=O)CO[C@@H]1C[C@@H]2O` (stereo partly shown) [Compound 3911] and `CCOC(=O)O[C@H]1C(=O)[C@@]2(C)C([C@H](OC(=O)c3ccccc3)[C@]3(O)C[C@H](OC(=O)[C@H](O)[C@@H](NC(=O)OC(C)(C)C)c4ccco4)C(C)=C1C3(C)C)[C@]1(OC(C)=O)CO[C@@H]1C[C@@H]2O` (stereo partly shown) [Compound 1822] cannot be ordered by pIC50: greater than 9.00 for the first, greater than 9.00 for the second.

`CCOC(=O)O[C@H]1C(=O)[C@@]2(C)C([C@H](OC(=O)c3ccccc3)[C@]3(O)C[C@H](OC(=O)[C@H](O)[C@@H](NC(=O)OC(C)(C)C)c4ccsc4)C(C)=C1C3(C)C)[C@]1(OC(C)=O)CO[C@@H]1C[C@@H]2O` (stereo partly shown) [Compound 1841] and `COC(=O)O[C@H]1C(=O)[C@@]2(C)C([C@H](OC(=O)c3ccccc3)[C@]3(O)C[C@H](OC(=O)[C@H](O)[C@@H](NC(=O)OC(C)(C)C)c4ccncc4)C(C)=C1C3(C)C)[C@]1(OC(C)=O)CO[C@@H]1C[C@@H]2O` (stereo partly shown) [Compound 2020] cannot be ordered by pIC50: greater than 9.00 for the first, greater than 9.00 for the second.

`COC(=O)O[C@H]1C(=O)[C@@]2(C)C([C@H](OC(=O)c3ccccc3)[C@]3(O)C[C@H](OC(=O)[C@H](O)[C@@H](NC(=O)OC(C)(C)C)C4CCC4)C(C)=C1C3(C)C)[C@]1(OC(C)=O)CO[C@@H]1C[C@@H]2O` (stereo partly shown) [Compound 2077] and `CCOC(=O)O[C@H]1C(=O)[C@@]2(C)C([C@H](OC(=O)c3ccccc3)[C@]3(O)C[C@H](OC(=O)[C@H](O)[C@@H](NC(=O)OCC(C)C)C4CC4)C(C)=C1C3(C)C)[C@]1(OC(C)=O)CO[C@@H]1C[C@@H]2O` (stereo partly shown) [Compound 4844] cannot be ordered by pIC50: greater than 8.00 for the first, greater than 9.00 for the second.

`CCOC(=O)O[C@H]1C[C@H]2OC[C@@]2(OC(C)=O)C2[C@H](OC(=O)c3ccccc3)[C@]3(O)C[C@H](OC(=O)[C@H](O)[C@@H](NC(=O)c4cccs4)c4cccs4)C(C)=C([C@@H](O)C(=O)[C@@]21C)C3(C)C` (stereo partly shown) [Compound 4455] showed a pIC50 greater than 9.00.

Same assay, conditions: HCT116 cells, colony formation, 72 h incubation with drug, colonies counted after 7 days; ID50 = drug concentration producing 50% inhibition of colony formation; read-out: IN VITRO ID 50 (nm) HCT116

`CCNC(=O)O[C@H]1C(=O)[C@@]2(C)C([C@H](OC(=O)c3ccccc3)[C@]3(O)C[C@H](OC(=O)[C@H](O)[C@@H](NC(=O)OC(C)(C)C)c4ccco4)C(C)=C1C3(C)C)[C@]1(OC(C)=O)CO[C@@H]1C[C@@H]2O` (stereo partly shown) [Compound 2700] was tested, and the pIC50 was greater than 9.00.

Same assay, conditions: HCT116 colony formation; 72 h drug incubation, colonies counted after 7 days; Example 5, C-7 ester/C-10 hydroxy taxanes; read-out: IN VITRO ID 50 (nm) HCT116

Compared with `CCC(=O)O[C@H]1C[C@H]2OC[C@@]2(OC(C)=O)C2[C@H](OC(=O)c3ccccc3)[C@]3(O)C[C@H](OC(=O)[C@H](O)[C@@H](NC(=O)OC(C)(C)C)c4cccnc4)C(C)=C([C@@H](O)C(=O)[C@@]21C)C3(C)C` (stereo partly shown) [Compound 1372], `CCC(=O)O[C@H]1C[C@H]2OC[C@@]2(OC(C)=O)C2[C@H](OC(=O)c3ccccc3)[C@]3(O)C[C@H](OC(=O)[C@H](O)[C@@H](NC(=O)OC(C)(C)C)c4ccccc4)C(C)=C([C@@H](O)C(=O)[C@@]21C)C3(C)C` (stereo partly shown) [Compound 1458] is higher in pIC50: 7.58 for the first, greater than 8.00 for the second. The second is the more potent here.

Compared with `CCCC(=O)O[C@H]1C[C@H]2OC[C@@]2(OC(C)=O)C2[C@H](OC(=O)c3ccccc3)[C@]3(O)C[C@H](OC(=O)[C@H](O)[C@@H](NC(=O)c4ccco4)c4cccs4)C(C)=C([C@@H](O)C(=O)[C@@]21C)C3(C)C` (stereo partly shown) [Compound 4219], `CCCC(=O)N[C@@H](c1ccco1)[C@@H](O)C(=O)O[C@H]1C[C@@]2(O)[C@@H](OC(=O)c3ccccc3)C3[C@](C)(C(=O)[C@H](O)C(=C1C)C2(C)C)[C@@H](OC(=O)CC)C[C@H]1OC[C@@]31OC(C)=O` (stereo partly shown) [Compound 3171] is higher in pIC50: 7.54 for the first, greater than 9.00 for the second.

`CCC(=O)O[C@H]1C[C@H]2OC[C@@]2(OC(C)=O)C2[C@H](OC(=O)c3ccccc3)[C@]3(O)C[C@H](OC(=O)[C@H](O)[C@@H](NC(=O)OC(C)(C)C)c4ccsc4)C(C)=C([C@@H](O)C(=O)[C@@]21C)C3(C)C` (stereo partly shown) [Compound 1424] and `CCC(=O)O[C@H]1C[C@H]2OC[C@@]2(OC(C)=O)C2[C@H](OC(=O)c3ccccc3)[C@]3(O)C[C@H](OC(=O)[C@H](O)[C@@H](NC(=O)OC(C)(C)C)C4CC4)C(C)=C([C@@H](O)C(=O)[C@@]21C)C3(C)C` (stereo partly shown) [Compound 5070] cannot be ordered by pIC50: greater than 9.00 for the first, greater than 8.00 for the second.

Same assay, conditions: HCT116 colony formation; 72 h drug incubation, colonies counted after 7 days; Example 10, C-10 ester/C-7 hydroxy taxanes; read-out: IN VITRO ID 50 (nm) HCT116

`C/C=C/C(=O)O[C@H]1C(=O)[C@@]2(C)C([C@H](OC(=O)c3ccccc3)[C@]3(O)C[C@H](OC(=O)[C@H](O)[C@@H](NC(=O)OC(C)(C)C)C(C)C)C(C)=C1C3(C)C)[C@]1(OC(C)=O)CO[C@@H]1C[C@@H]2O` (stereo partly shown) [Compound 2413] and `CCCC(=O)OC1C(=O)C2(C)C(O)CC3OCC3(OC(C)=O)C2C(OC(=O)c2ccccc2)C2(O)CC(OC(=O)C(O)C(NC(=O)OC(C)(C)C)C(C)C)C(C)=C1C2(C)C` (stereo not shown) [Compound 1031] cannot be ordered by pIC50: greater than 8.00 for the first, greater than 8.00 for the second.

`CCCC(=O)O[C@H]1C(=O)[C@@]2(C)C([C@H](OC(=O)c3ccccc3)[C@]3(O)C[C@H](OC(=O)[C@H](O)[C@@H](NC(=O)c4ccco4)c4ccco4)C(C)=C1C3(C)C)[C@]1(OC(C)=O)CO[C@@H]1C[C@@H]2O` (stereo partly shown) [Compound 3686] and `CCCC(=O)O[C@H]1C(=O)[C@@]2(C)C([C@H](OC(=O)c3ccccc3)[C@]3(O)C[C@H](OC(=O)[C@H](O)[C@@H](NC(=O)OCC(C)C)c4ccco4)C(C)=C1C3(C)C)[C@]1(OC(C)=O)CO[C@@H]1C[C@@H]2O` (stereo partly shown) [Compound 3110] cannot be ordered by pIC50: greater than 9.00 for the first, greater than 9.00 for the second.

`CC(=O)O[C@@]12CO[C@@H]1C[C@H](O)[C@@]1(C)C(=O)[C@H](OC(=O)C3CC3)C3=C(C)[C@@H](OC(=O)[C@H](O)[C@@H](NC(=O)OC(C)(C)C)c4ccoc4)C[C@@](O)([C@@H](OC(=O)c4ccccc4)C12)C3(C)C` (stereo partly shown) [Compound 2781] and `CC(=O)O[C@@]12CO[C@@H]1C[C@H](O)[C@@]1(C)C(=O)[C@H](OC(=O)C3CC3)C3=C(C)[C@@H](OC(=O)[C@H](O)[C@@H](NC(=O)OC(C)(C)C)C4CC4)C[C@@](O)([C@@H](OC(=O)c4ccccc4)C12)C3(C)C` (stereo partly shown) [Compound 0860] cannot be ordered by pIC50: greater than 9.00 for the first, greater than 9.00 for the second.

`CCC(=O)O[C@H]1C(=O)[C@@]2(C)C([C@H](OC(=O)c3ccccc3)[C@]3(O)C[C@H](OC(=O)[C@H](O)[C@@H](NC(=O)c4ccccc4)C4CCC4)C(C)=C1C3(C)C)[C@]1(OC(C)=O)CO[C@@H]1C[C@@H]2O` (stereo partly shown) [Compound 0720] and `CC(=O)O[C@@]12CO[C@@H]1C[C@H](O)[C@@]1(C)C(=O)[C@H](OC(=O)C3CC3)C3=C(C)[C@@H](OC(=O)[C@H](O)[C@@H](NC(=O)c4ccccc4)c4ccsc4)C[C@@](O)([C@@H](OC(=O)c4ccccc4)C12)C3(C)C` (stereo partly shown) [Compound 2838] cannot be ordered by pIC50: greater than 8.00 for the first, greater than 9.00 for the second.

`CC(=O)O[C@@]12CO[C@@H]1C[C@H](O)[C@@]1(C)C(=O)[C@H](OC(=O)C3CC3)C3=C(C)[C@@H](OC(=O)[C@H](O)[C@@H](NC(=O)OCC(C)C)c4ccsc4)C[C@@](O)([C@@H](OC(=O)c4ccccc4)C12)C3(C)C` (stereo partly shown) [Compound 5011] and `CC(=O)O[C@@]12CO[C@@H]1C[C@H](O)[C@@]1(C)C(=O)[C@H](OC(=O)C3CC3)C3=C(C)[C@@H](OC(=O)[C@H](O)[C@@H](NC(=O)OCC(C)C)C4CC4)C[C@@](O)([C@@H](OC(=O)c4ccccc4)C12)C3(C)C` (stereo partly shown) [Compound 5232] cannot be ordered by pIC50: greater than 8.00 for the first, greater than 8.00 for the second.

`CCCC(=O)O[C@H]1C(=O)[C@@]2(C)C([C@H](OC(=O)c3ccccc3)[C@]3(O)C[C@H](OC(=O)[C@H](O)[C@H](C=C(C)C)NC(=O)OC(C)(C)C)C(C)=C1C3(C)C)[C@]1(OC(C)=O)CO[C@@H]1C[C@@H]2O` (stereo partly shown) [Compound 0947] and `C/C=C/C(=O)O[C@H]1C(=O)[C@@]2(C)C([C@H](OC(=O)c3ccccc3)[C@]3(O)C[C@H](OC(=O)[C@H](O)[C@H](C=C(C)C)NC(=O)OC(C)(C)C)C(C)=C1C3(C)C)[C@]1(OC(C)=O)CO[C@@H]1C[C@@H]2O` (stereo partly shown) [Compound 2332] cannot be ordered by pIC50: greater than 9.00 for the first, greater than 9.00 for the second.

`CC(=O)OC12COC1CC(O)C1(C)C(=O)C(OC(=O)c3cccs3)C3=C(C)C(OC(=O)C(O)C(NC(=O)OC(C)(C)C)c4cccnc4)CC(O)(C(OC(=O)c4ccccc4)C21)C3(C)C` (stereo not shown) [Compound 1948] and `C/C=C/C(=O)O[C@H]1C(=O)[C@@]2(C)C([C@H](OC(=O)c3ccccc3)[C@]3(O)C[C@H](OC(=O)[C@H](O)[C@@H](NC(=O)OC(C)(C)C)c4ccsc4)C(C)=C1C3(C)C)[C@]1(OC(C)=O)CO[C@@H]1C[C@@H]2O` (stereo partly shown) [Compound 2408] cannot be ordered by pIC50: greater than 8.00 for the first, greater than 9.00 for the second.

`CCCC(=O)N[C@@H](c1cccs1)[C@@H](O)C(=O)O[C@H]1C[C@@]2(O)[C@@H](OC(=O)c3ccccc3)C3[C@](C)(C(=O)[C@H](OC(=O)CCC)C(=C1C)C2(C)C)[C@@H](O)C[C@H]1OC[C@@]31OC(C)=O` (stereo partly shown) [Compound 3314] and `CCCC(=O)O[C@H]1C(=O)[C@@]2(C)C([C@H](OC(=O)c3ccccc3)[C@]3(O)C[C@H](OC(=O)[C@H](O)[C@@H](NC(=O)OC(C)(C)C)c4ccsc4)C(C)=C1C3(C)C)[C@]1(OC(C)=O)CO[C@@H]1C[C@@H]2O` (stereo partly shown) [Compound 1011] cannot be ordered by pIC50: greater than 9.00 for the first, greater than 9.00 for the second.

`CC(=O)OC12COC1CC(O)C1(C)C(=O)C(OC(=O)c3ccco3)C3=C(C)C(OC(=O)C(O)C(C=C(C)C)NC(=O)OC(C)(C)C)CC(O)(C(OC(=O)c4ccccc4)C21)C3(C)C` (stereo not shown) [Compound 2101] and `CCC(=O)O[C@H]1C(=O)[C@@]2(C)C([C@H](OC(=O)c3ccccc3)[C@]3(O)C[C@H](OC(=O)[C@H](O)[C@@H](NC(=O)OC(C)(C)C)C4CC4)C(C)=C1C3(C)C)[C@]1(OC(C)=O)CO[C@@H]1C[C@@H]2O` (stereo partly shown) [Compound 0578] cannot be ordered by pIC50: greater than 9.00 for the first, greater than 9.00 for the second.

— patent US6638973B2, “Taxane formulations” (FSU Research Foundation, Inc., priority 2000, dated 2003)
